Patent US10253080B2, “Glucagon-like-peptide-2 (GLP-2) analogues” (Zealand Pharma A/S, priority 2012, dated 2019)
One block for each molecule: values may come before it. Non-standard residues stand in square brackets, D forms with d. Residues, ends and D or L forms follow the SMILES beside them. Aib = CC(C)(N)C(=O)O

What was measured:
[1] = target: T1, human GLP-1 receptor (Homo sapiens, UniProt P43220); experiment: GLP-1 receptor efficacy assay (cAMP AlphaScreen); assay type: cell-based; settings: HEK293 cells expressing human GLP-1R, cAMP response
T1 construct: expressed in transfected cells; host or cells: HEK293
T1 sequence (P43220 24-463): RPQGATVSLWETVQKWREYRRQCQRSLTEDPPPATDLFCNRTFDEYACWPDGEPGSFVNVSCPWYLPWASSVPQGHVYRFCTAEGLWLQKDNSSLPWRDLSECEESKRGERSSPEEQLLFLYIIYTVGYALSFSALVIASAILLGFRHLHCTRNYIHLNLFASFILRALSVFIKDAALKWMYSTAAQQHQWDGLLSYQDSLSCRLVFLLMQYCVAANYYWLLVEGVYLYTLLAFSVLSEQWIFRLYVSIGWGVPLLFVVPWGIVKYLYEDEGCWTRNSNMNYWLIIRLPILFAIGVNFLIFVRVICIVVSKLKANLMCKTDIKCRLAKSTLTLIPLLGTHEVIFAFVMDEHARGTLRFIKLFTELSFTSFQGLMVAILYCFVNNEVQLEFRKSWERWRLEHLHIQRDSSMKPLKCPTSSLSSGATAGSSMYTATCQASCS
Procedure: The 5′-end primers additionally encoded a near Kozak consensus sequence to ensure efficient translation. […] 48 hours after transfection, cells were seeded for limited dilution cloning and selected with 1 mg/ml G418 in the culture medium.
(§1) Data from test compounds eliciting an increase in the intracellular level of cAMP were normalized relative to the positive and negative control (vehicle) to calculate the EC50 and maximal response from the concentration response curve.

[2] = Oral glucose tolerance test (OGTT) in normal mice; assay type: in vivo, C57BL/6J male mice; settings: single SC dose 1 h before 2 g/kg oral glucose; vs vehicle; FIG. 2
Procedure: Normal chow-fed C57BL/6J male mice were used. The mice were kept in standard housing conditions (light-, temperature-, and humidity-controlled room (12:12 h light-dark cycle, with lights on at 06.00-18.00 h; 24° C.; 50% relative humidity)), and each dosing group consisted of 10 animals.
Prior to the oral glucose tolerance test (OGTT), animals were fasted for 5 h. One hour before glucose challenge (time t=−60 min) baseline blood glucose was measured. Immediately after the blood sample, the animals were dosed once subcutaneously with compound at the indicated amount or PBS (vehicle). One hour later at t=0 min, a 2 g/kg oral gavage of glucose (0.4 g/ml in water diluted from glucose SAD […]; dose volume 5 ml/kg) was given to the animals. After glucose administration, tail vein blood was drawn for glucose measurements at t=15, 30, 60, 120 min.

[3] = Effect on intestinal weight in normal rats; assay type: in vivo, Wistar male rats; settings: SC once daily for four days, weighed day 5; FIG. 3
Procedure: Normal chow-fed Wistar male rats were used. The rats were kept in standard housing conditions (light-, temperature-, and humidity-controlled room (12:12 h light-dark cycle, with lights on at 06.00-18.00 h; 24° C.; 50% relative humidity)), and each dosing group consisted of 6 animals. Rats were dosed once daily via the subcutaneous route, for four days with compound at the indicated amount or PBS (vehicle). On day five, rats were sacrificed and small intestinal weight wet measured.

[4] = Effect in diet-induced obese mice (intestinal mass, glucose homeostasis); assay type: in vivo, C57BL/6J male mice; settings: SC twice daily for 14 days
Procedure: Diet-induced obesity was generated by feeding C57BL/6J male mice with high fat diet (Research Diet 60% fat (D12492) Research Diet Inc., New Brunswick, USA). The mice were kept in standard housing conditions (light-, temperature-, and humidity-controlled room (12:12 h light-dark cycle, with lights on at 06.00-18.00 h; 24° C.; 50% relative humidity)).
The vehicle treated dosing group contained 8 animals and the compound 7 treated groups consisted of 12 animals/group. All animals were mock treated for 7 days (once daily, SC, 100 μl vehicle) to acclimatize the animals to handling and injections, followed by treatment (vehicle or compound 7) for 14 days (twice daily, SC, 5 ml/kg). Animals were fasted overnight (day 11-12) and blood was drawn for analysis of glucose and insulin. On day 14, animals were sacrificed and small and large intestines removed, washed and weighed.

[5] = target: T2, human GLP-2 receptor (Homo sapiens, UniProt O95838, D470N); experiment: GLP-2 receptor efficacy assay (cAMP AlphaScreen); assay type: cell-based; settings: HEK293 cells expressing hGLP-2 receptor, cAMP response; read-out: GLP-2R EC50
T2 construct: host or cells: HEK293
T2 sequence (O95838 1-553 D470N): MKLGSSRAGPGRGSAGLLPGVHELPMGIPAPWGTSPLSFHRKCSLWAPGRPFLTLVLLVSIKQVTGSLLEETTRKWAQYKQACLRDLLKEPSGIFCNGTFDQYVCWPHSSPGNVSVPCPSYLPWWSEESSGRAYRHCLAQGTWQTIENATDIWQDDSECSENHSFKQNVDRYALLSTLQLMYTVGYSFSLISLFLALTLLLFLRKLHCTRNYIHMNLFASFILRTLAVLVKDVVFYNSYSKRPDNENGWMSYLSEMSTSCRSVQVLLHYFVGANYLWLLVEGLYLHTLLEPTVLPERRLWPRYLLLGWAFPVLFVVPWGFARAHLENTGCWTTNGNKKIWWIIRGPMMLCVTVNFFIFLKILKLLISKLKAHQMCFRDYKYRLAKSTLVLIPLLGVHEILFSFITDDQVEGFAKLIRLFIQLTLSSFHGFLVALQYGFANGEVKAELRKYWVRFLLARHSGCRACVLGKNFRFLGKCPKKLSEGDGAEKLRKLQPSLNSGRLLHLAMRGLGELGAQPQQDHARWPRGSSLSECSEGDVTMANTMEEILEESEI
Procedure: Test compounds inducing an increase in the intracellular level of cAMP were tested in this assay, and the response normalized relative to a positive and negative control to calculate the EC50 and maximal response from the concentration response curve.
The hGLP2-R was purchased from MRC-geneservice, Babraham, Cambridge as an image clone: 5363415 (11924-117). For subcloning into an mammalian expression vector, primers for subcloning were obtained from DNA-Technology, Risskov, Denmark. The 5′ and 3′ primers used for the PCR reaction include terminal restriction sites for cloning and the context of the 5′ primer is modified to a Kozak consensus without changing the sequence of the product encoded by the ORF. A standard PCR reaction was run using image clone 5363415 (11924-117) as a template with the above mentioned primers and Polymerase Herculase II Fusion in a total vol, of 50 μl. The generated PCR product was purified using GFX PCR and Gel band purification kit, digested with restriction enzymes and cloned into the mammalian expression vector using Rapid DNA Ligation Kit. Ligation reaction was transformed to XL10 Gold Ultracompetent cells and colonies were picked for DNA production using Endofree Plasmid maxi kit. Subsequent sequence analysis was conducted by MWG Eurofins, Germany.
HEK293 cells were transfected using the Lipofectamine PLUS transfection method. The day before transfection, HEK293 cells were seeded in two T75 flasks at a density of 2×10^6 cells/T75 flask in cell culturing medium without antibiotics. On the day of transfection, cells were washed with 1×DPBS and medium was replaced with Optimem to a volume of 5 mL/T75 flask before addition of Lipofectamine-plasmid complexes were added gently and drop wise to the cells in T75 flasks and replaced with growth medium after 3 hours and again to growth medium supplemented with 500 μg/mL G418 after 24 hours. After 4 weeks in G418 selection, colonies were picked and tested in a functional assay. One colony was selected for use in compound profiling.
as §1

[6] = DPP IV degradation and renal clearance (Tavares et al. 2000); cited from earlier work
[7] = target: human GLP-2 receptor (hGLP2-R), splice variant rs17681684 (human, UniProt O95838); experiment: cell-based or functional assay

Molecule: CC[C@H](C)[C@H](NC(=O)[C@H](Cc1ccccc1)NC(=O)[C@H](CC(=O)O)NC(=O)[C@H](CCCNC(=N)N)NC(=O)[C@H](C)NC(=O)[C@H](C)NC(=O)[C@H](CCCCN)NC(=O)CNC(=O)[C@H](CC(=O)O)NC(=O)[C@H](CC(C)C)NC(=O)[C@@H](NC(=O)[C@@H](NC(=O)[C@H](CC(N)=O)NC(=O)[C@H](CC(C)C)NC(=O)[C@H](CCC(=O)O)NC(=O)[C@H](CC(=O)O)NC(=O)[C@H](CO)NC(=O)[C@H](Cc1ccccc1)NC(=O)[C@H](CO)NC(=O)CNC(=O)[C@H](CC(=O)O)NC(=O)C(C)(C)NC(=O)[C@@H](N)Cc1c[nH]cn1)[C@@H](C)O)[C@@H](C)CC)C(=O)N[C@@H](CC(N)=O)C(=O)N[C@@H](Cc1c[nH]c2ccccc12)C(=O)N[C@@H](CC(C)C)C(=O)N[C@H](C(=O)N[C@@H](CCC(N)=O)C(=O)N[C@H](C(=O)N[C@@H](CCCCN)C(N)=O)[C@@H](C)O)[C@@H](C)CC [Compound 10] (H-H[Aib]DGSFSDELNTILDGKAARDFINWLIQTK-NH2)
EC50 [1]: 0.03 nM

Molecule: H-HGDGSFSDEMNTILDGQAARDFINWLIQTK-NH2 [Compound 3]
EC50 [1]: 9 nM

Molecule: H-HGDGSFSSELATILDGKAARDFINWLIQTKITD-OH [Compound 7] [listing 1 of 2 here]
small intestinal wet weight [3]: increased intestinal weight in a dose dependant manner
EC50 [1]: 0.78 nM
fasting blood glucose ([4]; overnight fast day 11-12, vs vehicle, FIG. 5A): reduced
fasting plasma insulin levels ([4]; overnight fast day 11-12, vs vehicle, FIG. 5B): reduced
small intestinal mass ([4]; vs vehicle, FIG. 4A): significantly increased
large intestinal mass ([4]; vs vehicle, FIG. 4B): significantly increased
HOMA-IR index ([4]; vs vehicle, FIG. 5C): lower HOMA-IR index than vehicle treated controls

Molecule: H-HGDGSFSSELATILDGKAARDFINWLIQTKITD-OH [Compound 7] [listing 2 of 2 here]
EC50 [5]: 0.2 nM

Molecule: H-HGDGSFSSEMNTILDSQAARDFINWLIQTKITD-OH [Compound 4] [listing 1 of 2 here]
EC50 [1]: 25 nM

Molecule: H-HGDGSFSSEMNTILDSQAARDFINWLIQTKITD-OH [Compound 4] [listing 2 of 2 here]
EC50 [5]: 0.06 nM

Molecule: H-HGEGSFSSDLSTILENKAARDFIEWLIQTKITD-OH [Compound 9] [listing 1 of 2 here]
EC50 [1]: 9.1 nM

Molecule: H-HGEGSFSSDLSTILENKAARDFIEWLIQTKITD-OH [Compound 9] [listing 2 of 2 here]
EC50 [5]: 0.2 nM

Molecule: H-HGEGTFTSDLSKQMEGQAVRDFIEWLIQTKITD-OH [Compound 5] [listing 1 of 2 here]
EC50 [1]: 1 nM

Molecule: H-HGEGTFTSDLSKQMEGQAVRDFIEWLIQTKITD-OH [Compound 5] [listing 2 of 2 here]
EC50 [5]: 0.2 nM

Molecule: H-HGEGTFTSDLSKQMESKAARDFIEWLIQTKITD-OH [Compound 6]
EC50 [5]: 0.2 nM

Molecule: H-HGEGTFTSDLSTILENKAARDFIEWLIQTKITD-OH [Compound 8] [listing 1 of 2 here]
EC50 [1]: 16 nM

Molecule: H-HGEGTFTSDLSTILENKAARDFIEWLIQTKITD-OH [Compound 8] [listing 2 of 2 here]
EC50 [5]: 0.008 nM

Molecule: His-Ala-Asp-Gly-Ser-Phe-Ser-Asp-Glu-Met-Asn-Thr-Ile-Leu-Asp-Asn-Leu-Ala-Ala-Arg-Asp-Phe-Ile-Asn-Trp-Leu-Ile-Gln-Thr-Lys-Ile-Thr-Asp [GLP-2(1-33)]
half life [6]: about 7 minutes

Continued, in another order:

EC50 [1]: > 200 nM
Molecule: CC[C@H](C)[C@H](NC(=O)[C@H](Cc1ccccc1)NC(=O)[C@H](CC(=O)O)NC(=O)[C@H](CCCNC(=N)N)NC(=O)[C@H](C)NC(=O)[C@H](C)NC(=O)[C@H](CC(C)C)NC(=O)[C@H](CC(N)=O)NC(=O)[C@H](CC(=O)O)NC(=O)[C@H](CC(C)C)NC(=O)[C@@H](NC(=O)[C@@H](NC(=O)[C@H](CC(N)=O)NC(=O)[C@H](CCSC)NC(=O)[C@H](CCC(=O)O)NC(=O)[C@H](CC(=O)O)NC(=O)[C@H](CO)NC(=O)[C@H](Cc1ccccc1)NC(=O)[C@H](CO)NC(=O)CNC(=O)[C@H](CC(=O)O)NC(=O)CNC(=O)[C@@H](N)Cc1c[nH]cn1)[C@@H](C)O)[C@@H](C)CC)C(=O)N[C@@H](CC(N)=O)C(=O)N[C@@H](Cc1c[nH]c2ccccc12)C(=O)N[C@@H](CC(C)C)C(=O)N[C@H](C(=O)N[C@@H](CCC(N)=O)C(=O)N[C@H](C(=O)N[C@@H](CCCCN)C(=O)N[C@H](C(=O)N[C@H](C(=O)N[C@@H](CC(=O)O)C(=O)O)[C@@H](C)O)[C@@H](C)CC)[C@@H](C)O)[C@@H](C)CC [GLP-2 (Gly2), reference compound]

EC50 [1]: 0.07 nM
Molecule: H-HGDGSFSDEMNTILDGQAARDFINWLIQTK-NH2 [Compound 12]
blood glucose response in OGTT [2]: significantly reduced the blood glucose response

EC50 [1]: 0.34 nM
Molecule: H-HGDGSFSSELATILDGQAARDFIAWLIQTKITD-OH [Compound 11] [listing 1 of 2 here]

EC50 [5]: 0.2 nM
Molecule: H-HGDGSFSSELATILDGQAARDFIAWLIQTKITD-OH [Compound 11] [listing 2 of 2 here]

EC50 [1]: 18 nM
Molecule: H-HGEGSFSSDLSTILEGKAARDFIEWLIQTKITD-OH [Compound 13] [listing 1 of 2 here]

EC50 [5]: 0.1 nM
Molecule: H-HGEGSFSSDLSTILEGKAARDFIEWLIQTKITD-OH [Compound 13] [listing 2 of 2 here]

GLP-2R EC50 (nM), cAMP AlphaScreen [7]: > 1000 nM
B1: GLP-1 (peptide)
peptide: HDEFERHAEGTFTSDVSSYLEGQAAKEFIAWLVKGRG
